Like-named read-outs stand apart in the source and are kept apart here.
Tests used:
USP1-UAF1 = USP1-UAF1 (Homo sapiens, UniProt O94782); experiment: Ubiquitin Rhodamine assay of USP1-UAF1 activity; type: biochemical
Protocol: Certain compounds of the disclosure were assessed for USP1-UAF1 activity in a Ubiquitin Rhodamine assay as described in Biology Example 1.

MDA-MB-436 = experiment: Viability assay, BRCA1 mutant cell line MDA-MB-436; type: cell-based; settings: Homo sapiens, MDA-MB-436, viability, BRCA1 mutant MDA-MB-436; read-out: MDA-MB-436 rel IC50
Text: (§1) Table 1 also indicates IC50 values in a viability assay for a non-isogenic pair of BRCA1 mutant (column 5-MDA-MB-436) and BRCA1 WT (column 6—HCC1954) cell lines. These values indicate the effect of treatment with compound on cell survival.

HCC1954 = experiment: Viability assay, BRCA1 WT cell line HCC1954; type: cell-based; settings: read-out: HCC1954 rel IC50
Text: as §1

monoubiquitinated PCNA = experiment: AlphaLISA assay measuring monoubiquitinated PCNA in MDA-MB-436; type: cell-based; settings: Homo sapiens, MDA-MB-436, monoubiquitinated PCNA, read-out: Alpha Lisa IC50
Text: Table 1 also indicates IC50 values for exemplary compounds in an AlphaLISA assay measuring monoubiquitinated PCNA in a BRCA1 mutant cell line (MDA-MB-436; column 7).

[1] = Homo sapiens, HCC1954, viability

Chain of USP1-UAF1 (O94782 whole entry): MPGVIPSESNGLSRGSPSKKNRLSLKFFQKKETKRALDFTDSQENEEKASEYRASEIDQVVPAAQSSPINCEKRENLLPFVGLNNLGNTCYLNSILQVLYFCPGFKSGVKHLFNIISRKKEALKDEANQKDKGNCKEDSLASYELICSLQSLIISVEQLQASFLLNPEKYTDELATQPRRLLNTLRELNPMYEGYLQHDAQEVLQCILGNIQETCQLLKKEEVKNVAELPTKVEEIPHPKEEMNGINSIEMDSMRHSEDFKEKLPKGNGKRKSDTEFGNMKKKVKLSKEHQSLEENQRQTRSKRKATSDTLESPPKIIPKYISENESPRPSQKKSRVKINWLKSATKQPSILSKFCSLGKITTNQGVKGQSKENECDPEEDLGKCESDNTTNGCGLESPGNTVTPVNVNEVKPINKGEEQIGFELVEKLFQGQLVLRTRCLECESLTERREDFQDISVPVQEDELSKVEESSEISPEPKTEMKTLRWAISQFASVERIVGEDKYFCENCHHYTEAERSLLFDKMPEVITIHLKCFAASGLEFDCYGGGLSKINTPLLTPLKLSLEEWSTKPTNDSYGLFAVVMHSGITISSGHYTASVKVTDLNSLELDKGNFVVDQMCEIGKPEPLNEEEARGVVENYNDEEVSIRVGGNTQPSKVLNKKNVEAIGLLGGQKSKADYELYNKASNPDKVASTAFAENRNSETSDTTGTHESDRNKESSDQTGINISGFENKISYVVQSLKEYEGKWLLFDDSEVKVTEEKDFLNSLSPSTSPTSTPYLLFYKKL
Chain of USP1-UAF1 (Q8TAF3 whole entry partner): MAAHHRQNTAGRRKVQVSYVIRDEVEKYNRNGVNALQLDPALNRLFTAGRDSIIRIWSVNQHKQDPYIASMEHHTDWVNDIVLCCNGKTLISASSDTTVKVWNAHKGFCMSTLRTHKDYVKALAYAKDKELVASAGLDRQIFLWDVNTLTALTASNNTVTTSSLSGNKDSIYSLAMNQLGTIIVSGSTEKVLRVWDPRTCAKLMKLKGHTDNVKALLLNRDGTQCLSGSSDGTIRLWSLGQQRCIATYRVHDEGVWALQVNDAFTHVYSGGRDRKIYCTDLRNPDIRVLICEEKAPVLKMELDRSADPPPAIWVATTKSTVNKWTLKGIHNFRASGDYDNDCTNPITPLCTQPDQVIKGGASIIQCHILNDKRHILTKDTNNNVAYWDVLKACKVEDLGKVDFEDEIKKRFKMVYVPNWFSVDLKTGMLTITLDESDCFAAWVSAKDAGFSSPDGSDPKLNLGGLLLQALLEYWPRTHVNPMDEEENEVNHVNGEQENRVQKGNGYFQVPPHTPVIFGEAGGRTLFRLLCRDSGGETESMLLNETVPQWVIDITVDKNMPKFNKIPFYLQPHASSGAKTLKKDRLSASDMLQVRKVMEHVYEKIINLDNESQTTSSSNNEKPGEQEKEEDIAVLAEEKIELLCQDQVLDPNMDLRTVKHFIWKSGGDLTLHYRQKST

Compound `COc1cc(Cn2c(=N)n(C)c3cnc(-c4ccccc4C(C)C)nc32)ccc1-c1nc(C(F)(F)F)cn1C` [Example A-37, 2-(2-isopropylphenyl)-9-(3-methoxy-4-(1-methyl-4-(trifluoromethyl)-1H-imidazol-2-yl)benzyl)-7-methyl-7,9-dihydro-8H-purin-8-imine] has an IC50 (USP1-UAF1) of less than 30 nM, an IC50 (MDA-MB-436) of 250 to 10000 nM and an IC50 (HCC1954; [1]) of no less than 10000 nM. It also gave an IC50 (monoubiquitinated PCNA) of 100 to 250 nM.

`COc1ccnc(C2CC2)c1-c1ncc2c(n1)n(Cc1ccc(-n3nc(C(F)(F)F)cc3OC)cc1)c(=N)n2CC(F)(F)F` [Example T-136, 2-(2-cyclopropyl-4-methoxy-3-pyridyl)-9-[[4-[5-methoxy-3-(trifluoromethyl)pyrazol-1-yl]phenyl]methyl]-7-(2,2,2-trifluoroethyl)purin-8-imine] showed an IC50 (USP1-UAF1) of 30 to 100 nM, an IC50 (MDA-MB-436) of 100 to 250 nM and an IC50 (HCC1954; [1]) of no less than 10000 nM. It also gave an IC50 (monoubiquitinated PCNA) of 100 to 250 nM.

`COc1ncnc(C2CC2)c1-c1ncc2c(n1)n(Cc1ccc(-c3nc(C(F)(F)F)cn3C3CCC3)cc1)c(=N)n2CC(F)(F)F` [Example T-120, 9-[[4-[1-cyclobutyl-4-(trifluoromethyl)imidazol-2-yl]phenyl]methyl]-2-(4-cyclopropyl-6-methoxy-pyrimidin-5-yl)-7-(2,2,2-trifluoroethyl)purin-8-imine] gave an IC50 (USP1-UAF1) of less than 30 nM, an IC50 (MDA-MB-436) of less than 100 nM and an IC50 (HCC1954; [1]) of no less than 10000 nM. The IC50 (monoubiquitinated PCNA) was less than 100 nM.

Work on `COc1nc(C)nc(C2CC2)c1-c1ncc2c(n1)n(Cc1ccc(-c3nc(C(F)(F)F)cn3C)cc1)c(=N)n2CC(F)(F)F` [Example T-102, 2-(4-cyclopropyl-6-methoxy-2-methyl-pyrimidin-5-yl)-9-[[4-[1-methyl-4-(trifluoromethyl)imidazol-2-yl]phenyl]methyl]-7-(2,2,2-trifluoroethyl)purin-8-imine] yielded an IC50 (USP1-UAF1) of 100 to 10000 nM, an IC50 (MDA-MB-436) of 100 to 250 nM and an IC50 (HCC1954; [1]) of no less than 10000 nM. The IC50 (monoubiquitinated PCNA) was 250 to 10000 nM.

`Cn1cc(Cl)nc1-c1ccc(Cn2c(=N)n(C)c3cnc(-c4ccccc4Cl)nc32)cc1` [Example A-11, 9-(4-(4-chloro-1-methyl-1H-imidazol-2-yl)benzyl)-2-(2-chlorophenyl)-7-methyl-7,9-dihydro-8H-purin-8-imine] was tested, and the IC50 (USP1-UAF1) was 100 to 10000 nM, the IC50 (MDA-MB-436) was 250 to 10000 nM and the IC50 (HCC1954; [1]) was no less than 10000 nM. It also gave an IC50 (monoubiquitinated PCNA) of 250 to 10000 nM.

For `COc1ncnc(C(F)(F)F)c1-c1ncc2c(n1)n(Cc1ccc(-n3nc(C(F)(F)F)cc3OC)cc1)c(=N)n2CC(F)(F)F` [Example T-145, 9-[[4-[5-methoxy-3-(trifluoromethyl)pyrazol-1-yl]phenyl]methyl]-2-[4-methoxy-6-(trifluoromethyl)pyrimidin-5-yl]-7-(2,2,2-trifluoroethyl)purin-8-imine], the IC50 (USP1-UAF1) was 30 to 100 nM, the IC50 (MDA-MB-436) was 100 to 250 nM and the IC50 (HCC1954; [1]) was 250 to 10000 nM. The IC50 (monoubiquitinated PCNA) was less than 100 nM.

Work on `CC(C)c1ccccc1-c1ncc2c(n1)n(Cc1ccc(-c3nc(C(F)(F)F)cn3C)cc1)c(=N)n2CC(F)(F)F` [Example T-054] yielded an IC50 (USP1-UAF1) of 30 to 100 nM, an IC50 (MDA-MB-436) of less than 100 nM and an IC50 (HCC1954; [1]) of no less than 10000 nM. The IC50 (monoubiquitinated PCNA) was less than 100 nM.

Work on `Cn1cc(C(F)(F)F)nc1-c1ccc(Cn2c(=N)n(C)c3cnc(-c4ccccc4OC(F)(F)F)nc32)cc1` [Example T-033, 7-methyl-9-[[4-[1-methyl-4-(trifluoromethyl)imidazol-2-yl]phenyl]methyl]-2-[2-(trifluoromethoxy)phenyl]purin-8-imine] yielded an IC50 (USP1-UAF1) of less than 30 nM, an IC50 (MDA-MB-436) of less than 100 nM and an IC50 (HCC1954; [1]) of 250 to 10000 nM. The IC50 (monoubiquitinated PCNA) was less than 100 nM.

In the case of `C=C(C)c1ccc(F)cc1-c1nc(C)c2c(n1)n(Cc1ccc(-c3nc(C(F)(F)F)cn3C)cc1)c(=N)n2C` [Example A-42, 2-(5-fluoro-2-(prop-1-en-2-yl)phenyl)-6,7-dimethyl-9-(4-(1-methyl-4-(trifluoromethyl)-1H-imidazol-2-yl)benzyl)-7,9-dihydro-8H-purin-8-imine], the IC50 (USP1-UAF1) is reported as 30 to 100 nM, the IC50 (MDA-MB-436) is reported as 250 to 10000 nM and the IC50 (HCC1954; [1]) is reported as 250 to 10000 nM. It also gave an IC50 (monoubiquitinated PCNA) of 100 to 250 nM.

For `COc1ncnc(C2CC2)c1-c1ncc2c(n1)n(Cc1cc(F)c(-c3nc(C(F)(F)F)cn3C)c(F)c1)c(=N)n2CC(F)(F)F` [Example T-126, 2-(4-cyclopropyl-6-methoxy-pyrimidin-5-yl)-9-[[3,5-difluoro-4-[1-methyl-4-(trifluoromethyl)imidazol-2-yl]phenyl]methyl]-7-(2,2,2-trifluoroethyl)purin-8-imine], the IC50 (USP1-UAF1) was 30 to 100 nM, the IC50 (MDA-MB-436) was less than 100 nM and the IC50 (HCC1954; [1]) was no less than 10000 nM. The IC50 (monoubiquitinated PCNA) was less than 100 nM.

In the case of `COc1nsc(OC)c1-c1ncc2c(n1)n(Cc1ccc(-c3nc(C(F)(F)F)cn3C)cc1)c(=N)n2C` [Example T-052], the IC50 (USP1-UAF1) is reported as 30 to 100 nM, the IC50 (MDA-MB-436) is reported as 100 to 250 nM and the IC50 (HCC1954; [1]) is reported as 250 to 10000 nM. For the same compound, the IC50 (monoubiquitinated PCNA) was 100 to 250 nM.

Work on `CC(C)c1ccccc1-c1ncc2c(n1)n(C(C)C1CCN(c3nc(Cl)cn3C)CC1)c(=N)n2C` (single isomer, unassigned) [Example A-26c, 9-(1-(1-(4-chloro-1-methyl-1H-imidazol-2-yl)piperidin-4-yl)ethyl)-2-(2-isopropylphenyl)-7-methyl-7,9-dihydro-8H-purin-8-imine] yielded an IC50 (USP1-UAF1) of 100 to 10000 nM, an IC50 (MDA-MB-436) of 250 to 10000 nM and an IC50 (HCC1954; viability) of 250 to 10000 nM. It also gave an IC50 (monoubiquitinated PCNA) of 250 to 10000 nM.

With `Cn1cc(C(F)(F)F)nc1-c1ccc(Cn2c(=N)n(C)c3cnc(-c4cccnc4OCC(F)(F)F)nc32)cc1` [Example T-079, 7-methyl-9-[[4-[1-methyl-4-(trifluoromethyl)imidazol-2-yl]phenyl]methyl]-2-[2-(2,2,2-trifluoroethoxy)-3-pyridyl]purin-8-imine] the IC50 (USP1-UAF1) was 100 to 10000 nM, the IC50 (MDA-MB-436) was 250 to 10000 nM and the IC50 (HCC1954; [1]) was no less than 10000 nM. It also gave an IC50 (monoubiquitinated PCNA) of 100 to 250 nM.

`COc1nccc(F)c1-c1ncc2c(n1)n(Cc1ccc(-c3nc(C(F)(F)F)cn3C)cc1)c(=N)n2C` [Example T-065] was tested, and the IC50 (USP1-UAF1) was 30 to 100 nM, the IC50 (MDA-MB-436) was 100 to 250 nM and the IC50 (HCC1954; [1]) was no less than 10000 nM. It also gave an IC50 (monoubiquitinated PCNA) of 100 to 250 nM.

`COc1ncnc(C2(C)CC2)c1-c1ncc2c(n1)n(Cc1ccc(-c3nc(C(F)(F)F)cn3C)cc1)c(=N)n2CC(F)(F)F` [Example T-137, 2-[4-methoxy-6-(1-methylcyclopropyl)pyrimidin-5-yl]-9-[[4-[1-methyl-4-(trifluoromethyl)imidazol-2-yl]phenyl]methyl]-7-(2,2,2-trifluoroethyl)purin-8-imine] gave an IC50 (USP1-UAF1) of 100 to 10000 nM, an IC50 (MDA-MB-436) of 100 to 250 nM and an IC50 (HCC1954; [1]) of no less than 10000 nM. It also gave an IC50 (monoubiquitinated PCNA) of 100 to 250 nM.

Compound `CC(C)c1ccccc1-c1nc(C2CC2)c2c(n1)n(Cc1ccc(-c3nc(C(F)(F)F)cn3C)cc1)c(=N)n2C` [Example A-23, 6-cyclopropyl-2-(2-isopropylphenyl)-7-methyl-9-(4-(1-methyl-4-(trifluoromethyl)-1H-imidazol-2-yl)benzyl)-7,9-dihydro-8H-purin-8-imine] has an IC50 (USP1-UAF1) of less than 30 nM, an IC50 (MDA-MB-436) of 250 to 10000 nM and an IC50 (HCC1954; [1]) of 250 to 10000 nM. The IC50 (monoubiquitinated PCNA) was 250 to 10000 nM.

`COc1ncnc(C2CC2)c1-c1ncc2c(n1)n(Cc1ccc(-c3nc(C(F)(F)F)cn3C)c(F)c1)c(=N)n2CC(F)(F)F` [Example T-118, 2-(4-cyclopropyl-6-methoxypyrimidin-5-yl)-9-(3-fluoro-4-(1-methyl-4-(trifluoromethyl)-1H-imidazol-2-yl)benzyl)-7-(2,2,2-trifluoroethyl)-7H-purin-8(9H)-imine] showed an IC50 (USP1-UAF1) of 100 to 10000 nM, an IC50 (MDA-MB-436) of less than 100 nM and an IC50 (HCC1954; [1]) of no less than 10000 nM. The IC50 (monoubiquitinated PCNA) was less than 100 nM.

For `Cn1cc(C(F)(F)F)nc1-c1ccc(Cn2c(=N)n(C)c3cnc(-c4ccccc4[C@H](O)C(F)(F)F)nc32)cc1` (single isomer, unassigned) [Example T-129, 2,2,2-trifluoro-[2-[8-imino-7-methyl-9-[[4-[I-methyl-4-(trifluoromethyl)imidazol-2-yl]phenyl]methyl]purin-2-yl]phenyl]ethanol], the IC50 (USP1-UAF1) was 30 to 100 nM, the IC50 (MDA-MB-436) was 100 to 250 nM and the IC50 (HCC1954; [1]) was no less than 10000 nM. It also gave an IC50 (monoubiquitinated PCNA) of 100 to 250 nM.

`Cn1cc(C(F)(F)F)nc1-c1ccc(Cn2c(=N)n(CC(F)(F)F)c3cnc(-c4c(OCF)ncnc4C4CC4)nc32)cc1` [Example T-147, 2-[4-cyclopropyl-6-(fluoromethoxy)pyrimidin-5-yl]-9-[[4-[1-methyl-4-(trifluoromethyl)imidazol-2-yl]phenyl]methyl]-7-(2,2,2-trifluoroethyl)purin-8-imine] gave an IC50 (USP1-UAF1) of 30 to 100 nM, an IC50 (MDA-MB-436) of 100 to 250 nM and an IC50 (HCC1954; [1]) of no less than 10000 nM. The IC50 (monoubiquitinated PCNA) was less than 100 nM.

With `CNc1nc(-c2ccccc2C(C)C)nc2c1n(C)c(=N)n2Cc1ccc(-c2nc(C(F)(F)F)cn2C)cc1` [Example A-18, 8-imino-2-(2-isopropylphenyl)-N, 7-dimethyl-9-(4-(1-methyl-4-(trifluoromethyl)-1H-imidazol-2-yl)benzyl)-8,9-dihydro-7H-purin-6-amine] the IC50 (USP1-UAF1) was 100 to 10000 nM, the IC50 (MDA-MB-436) was 250 to 10000 nM and the IC50 (HCC1954; [1]) was 250 to 10000 nM. For the same compound, the IC50 (monoubiquitinated PCNA) was no less than 10000 nM.

`COc1ncc(F)cc1-c1ncc2c(n1)n(Cc1ccc(-c3nc(C(F)(F)F)cn3C)cc1)c(=N)n2C` [Example T-013] was tested, and the IC50 (USP1-UAF1) was 100 to 10000 nM, the IC50 (MDA-MB-436) was 250 to 10000 nM and the IC50 (HCC1954; [1]) was no less than 10000 nM. The IC50 (monoubiquitinated PCNA) was 250 to 10000 nM.

In the case of `CC(C)c1ccccc1-c1ncc2c(n1)n(Cc1ccc(-c3nc(C(F)(F)F)c(Br)n3C)cc1)c(=N)n2C` [Example T-059], the IC50 (USP1-UAF1) is reported as less than 30 nM, the IC50 (MDA-MB-436) is reported as less than 100 nM and the IC50 (HCC1954; [1]) is reported as 250 to 10000 nM. The IC50 (monoubiquitinated PCNA) was less than 100 nM.

`CC(C)c1ccccc1-c1ncc2c(n1)n(Cc1ccc(-c3nc(Cl)cn3C)cc1)c(=N)n2C` [Example A-6, 9-(4-(4-chloro-1-methyl-1H-imidazol-2-yl)benzyl)-2-(2-isopropylphenyl)-7-methyl-7,9-dihydro-8H-purin-8-imine] was tested, and the IC50 (USP1-UAF1) was less than 30 nM, the IC50 (MDA-MB-436) was less than 100 nM and the IC50 (HCC1954; [1]) was no less than 10000 nM. It also gave an IC50 (monoubiquitinated PCNA) of less than 100 nM.
